Key:
Conditions in all cases: incubation time: 72 h
HDQ-P1 [1] = assay: normalised response (% of control), CellTiter-Glo; higher = more viable cells (100 = DMSO, 0 = benzethonium chloride kill control)
Summary of the method: (§1)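 Breast cancer cell lines were exposed for 72 h in 384-well plates to compound at 5 concentrations, 10-fold apart, covering a 10,000-fold range fixed for each compound. Plates were read for CellTox Green fluorescence and CellTiter-Glo luminescence and normalised to 0.1 % DMSO (100) and a positive kill control (0). Each value is the normalised signal at one concentration of the series.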

MDA-MB-436 [2] = assay: as above
Summary of the method: as §1

MFM-223 [3] = assay: as above
Summary of the method: as §1

BT-474 [4] = assay: as above
Summary of the method: as §1

CAL-85-1 [5] = assay: as above
Summary of the method: as §1

BT-549 [6] = assay: as above
Summary of the method: as §1

CAL-148 [7] = assay: as above
Summary of the method: as §1

MDA-MB-453 [8] = assay: as above
Summary of the method: as §1

MDA-MB-231 [9] = assay: as above
Summary of the method: as §1

HCC1599 [10] = assay: as above
Summary of the method: as §1

CAL-120 [11] = assay: as above
Summary of the method: as §1

CAL-51 [12] = assay: as above
Summary of the method: as §1

MDA-MB-468 [13] = assay: as above
Summary of the method: as §1

MCF-10A [14] = assay: as above
Summary of the method: as §1

DU-4475 [15] = assay: as above
Summary of the method: as §1

HCC1937 [16] = assay: as above
Summary of the method: as §1

SK-BR-3 = assay: as above
Summary of the method: as §1

Hs578T [17] = assay: as above
Summary of the method: as §1

HCC1143 [18] = assay: as above
Summary of the method: as §1

HDQ-P1 [19] = assay: normalised response (% of control), CellTox Green; higher = less cell death (100 = DMSO, 0 = benzethonium chloride kill control)
Summary of the method: as §1

MDA-MB-436 [20] = assay: as above
Summary of the method: as §1

MFM-223 [21] = assay: as above
Summary of the method: as §1

BT-474 [22] = assay: as above
Summary of the method: as §1

CAL-85-1 [23] = assay: as above
Summary of the method: as §1

BT-549 [24] = assay: as above
Summary of the method: as §1

CAL-148 [25] = assay: as above
Summary of the method: as §1

MDA-MB-453 [26] = assay: as above
Summary of the method: as §1

MDA-MB-231 [27] = assay: as above
Summary of the method: as §1

HCC1599 [28] = assay: as above
Summary of the method: as §1

CAL-120 [29] = assay: as above
Summary of the method: as §1

CAL-51 [30] = assay: as above
Summary of the method: as §1

MDA-MB-468 [31] = assay: as above
Summary of the method: as §1

MCF-10A [32] = assay: as above
Summary of the method: as §1

DU-4475 [33] = assay: as above
Summary of the method: as §1

HCC1937 [34] = assay: as above
Summary of the method: as §1

Hs578T [35] = assay: as above
Summary of the method: as §1

HCC1143 [36] = assay: as above
Summary of the method: as §1

| SMILES | normalised response (HDQ-P1 [1]) [%] | normalised response (MDA-MB-436 [2]) [%] | normalised response (MFM-223 [3]) [%] | normalised response (BT-474 [4]) [%] | normalised response (CAL-85-1 [5]) [%] | normalised response (BT-549 [6]) [%] | normalised response (CAL-148 [7]) [%] | normalised response (MDA-MB-453 [8]) [%] | normalised response (MDA-MB-231 [9]) [%] | normalised response (HCC1599 [10]) [%] | normalised response (CAL-120 [11]) [%] | normalised response (CAL-51 [12]) [%] | normalised response (MDA-MB-468 [13]) [%] | normalised response (MCF-10A [14]) [%] | normalised response (DU-4475 [15]) [%] | normalised response (HCC1937 [16]) [%] | normalised response (SK-BR-3) [%] | normalised response (Hs578T [17]) [%] | normalised response (HCC1143 [18]) [%] | normalised response (HDQ-P1 [19]) [%] | normalised response (MDA-MB-436 [20]) [%] | normalised response (MFM-223 [21]) [%] | normalised response (BT-474 [22]) [%] | normalised response (CAL-85-1 [23]) [%] | normalised response (BT-549 [24]) [%] | normalised response (CAL-148 [25]) [%] | normalised response (MDA-MB-453 [26]) [%] | normalised response (MDA-MB-231 [27]) [%] | normalised response (HCC1599 [28]) [%] | normalised response (CAL-120 [29]) [%] | normalised response (CAL-51 [30]) [%] | normalised response (MDA-MB-468 [31]) [%] | normalised response (MCF-10A [32]) [%] | normalised response (DU-4475 [33]) [%] | normalised response (HCC1937 [34]) [%] | normalised response (Hs578T [35]) [%] | normalised response (HCC1143 [36]) [%] |
| --- | --- | --- | --- | --- | --- | --- | --- | --- | --- | --- | --- | --- | --- | --- | --- | --- | --- | --- | --- | --- | --- | --- | --- | --- | --- | --- | --- | --- | --- | --- | --- | --- | --- | --- | --- | --- | --- |
| COc1ccccc1S(=O)(=O)Nc1ccc2c(c1)CN(C)C(=O)N2 [PFI-1] (1000 nM) | 91.9 | 93.9 | 97.8 | 89.8 | 87 | 76.9 | 107 | 91.1 | 89.2 | 86.7 | 91.3 | 87.7 | 95 | 98.6 | 97.7 | 90.9 | 103 | 85 | 94.1 | 109 | 115 | 87.8 | 98.7 | 121 | 111 | 103 | 121 | 105 | 110 | 111 | 116 | 140 | 105 | 107 | 91.9 | 98.2 | 95 |
| C/C(=C\c1csc(C)n1)[C@@H]1C[C@@H]2O[C@]2(C)CCC[C@H](C)[C@H](O)[C@@H](C)C(=O)C(C)(C)[C@@H](O)CC(=O)O1 [Patupilone] (100 nM) | 74.6 | 35.4 | 86.8 | 75.1 | 25.8 | 16.3 | 37.4 | 71.8 | 73 | 102 | 71.4 | 24.4 | 26.2 | 61.4 | 72.4 | 75.9 | 17.4 | 39.6 | 42.8 | 71.9 | 40.1 | 84.1 | 58.5 | 38.6 | 90.3 | 50.5 | 93.6 | 65.7 | 95.6 | 77.9 | 36.3 | -2.53 | 77.1 | 94.5 | 81.2 | 96.1 | 103 |

— the supplement of paper PMC4862054
